± gives the expanded uncertainty stated by the source.
Key:
[1] = Crystal
[2] = Molar enthalpy of transition or fusion; conditions: Crystal; DSC

With `CN1N=N[NH+](N)C1N.O=[N+]([O-])[O-]` (stereo not drawn) [1,5-diamino-4-methyl-4,5-dihydro-1H-tetrazol-1-ium nitrate] the mass density ([1]; 571.3 K, 101.33 kPa, X-ray) was 1506 ± 2 kg/m3, the Normal melting temperature ([1]; DTA) was 121.00 ± 1 °C and the “Molar enthalpy of transition or fusion” value [2] was 5.16e-06 ± 1.7e-07 kcal/mol.
